# Source: patent US12187758B2 (ROME Therapeutics, Inc., priority 2022, dated 2025)
# Key:
# pTBK1 = pTBK1 level with and without UVB exposure (Example 111); assay type: cell-based; settings: varying concentrations of compound, alone or after UVB exposure (FIGS. 4B and 4C)
# [1] = tested on: interferon-stimulated gene (ISG) response; test: In vivo decitabine challenge model in BALB/c mice; settings: decitabine i.p. 5 mg/kg, RNAseq
# Method: Thirty 9-11 week old BALB/c mice were acclimated to the lab for at least 5 days. Compounds 2, 40 and 67 were prepared in a 20% PEG400 (pH 3.5) solution for p.o. administration, compounds were prepared no more than 30 minutes prior to daily dosing. Decitabine (Sigma) was dissolved in sterile PBS (pH 7.4) and dosed within 30 minutes of preparation of the solution. Doses of both the compound and decitabine were administered once a day, every day from Day 0 to day 4. On Day 0, mice were split into […] of five mice and given their first dose of decitabine (i.p., 5 mg/kg) and compound. Dosing groups were as in the following table (all doses in mg/kg): [table] Decitabine (i.p., 5 mg/kg) and compounds 2, 40 or 67 were administered daily from […] to Day 4. All mice were euthanized 1 hour after the last dose administration on Day 4. Spleen and kidneys were harvested and snap frozen in liquid nitrogen, and plasma (EDTA) was collected for bioanalysis. Total RNA was isolated using the PureLink RNA Mini Kit (ThermoFisher) and prepared for RNAseq using the TruSeq Stranded mRNA platform (Illumina). 50M Stranded reads were collected on an Illumina HiSeq system. Data were analyzed as follows: RNA sequencing reads were aligned to the […] reference genome using the STAR RNA-seq aligner (Dobin et al., 2013). Expression of each transcript was quantified using Salmon (Patro, et al. 2015) TPM values for each transcript. These transcript-level TPM values were aggregated by gene to get gene-level TPM values, and log-transformed these values. Mouse orthologs for each gene in the list of ISG-associated genes in the human genome from Liu et al., 2019 using Ensembl BioMart (Kinsella et al., 2011) were identified. The ISG score for each sample was calculated as the median log-transformed TPM value across all genes in this ISG gene set.
# human PBMC = test: Decitabine-stimulated human PBMC assay; assay type: cell-based; settings: PBMCs, 5 days; for IFN-β production: anti-CD3/anti-CD28, decitabine 10 μM, FIGS. 3A and 3B
# Method: EasySep buffer (32 mL, […] Technologies, cat. #20144) was used to dilute 8 mL of LRSC buffy coat (from fresh Leukopak) with gentle mixing. The diluted buffy coat (20 mL) was transferred into each of two SepMate 50 tubes, and the tubes were filled with 15 mL of Lyphoprep ([…], cat. #07851) density gradient. The SepMate tubes were then centrifuged at 1200 G for 10 minutes at room temperature with the brake on. The top layer of supernatant was collected in SepMate tubes by quickly pouring it into a new 50 mL conical tube. The PBMCs were washed with EasySep buffer×2 by centrifuging at 300 G for 5 minutes. The cells were resuspended in 30 mL of EasySep and centrifuged at 100 G for 5 minutes with the brake off, and the platelets were removed. The cells were then resuspended in 6 mL of 1×RBC lysis buffer (Invitrogen) and incubated at 37° C. for 5 minutes. 25 mL of EasySep buffer was then mixed into the tube and centrifuged at 300 G for 5 minutes. The cells were resuspended in 10 mL of EasySep buffer and the cells were then counted with Cellometer (AO/PI). The PBMCs were resuspended in RPMI1640 (ThermoFisher)+ 10% FBS (HyClone)+μ/s at 3×10^6/mL. The PBMCs (100 μL, 300 k PBMCs) were then seeded in a 96-well flat bottom microplate (Corning) that had been precoated with 100 μL of anti-CD3 antibody (10 μg/mL in PBS, Biolegend) or PBS at 4° C., one day before the assay was commenced.
# To each well the following solutions were added 1) 100 μL of cells (final cell number per well is 3×10^5 cell/well); 2) 25 μL of anti-CD28 antibody at 6× (5 μg/mL final concentration, Biolegend); 3) 25 μL of decitabine at 6× (10 μM final concentration); and 4) Compound in DMSO was dispensed directly into each well with a d300e digital dispenser (Tecan). The final concentration of DMSO for each well was normalized to 0.3%. The plate was incubated at 37° C. without any agitation for 5 days. Samples were collected 120 hours after incubation to determine IFN-β […] levels using a U-PLEX Human IFN-β Assay Sector (5PL) (MSD, cat. #K151VIK-2).
# After 5 days, the plate was spun down at 100×G for 5 minutes. Supernatants (100 μL) were collected for interferon R (IFN-0) analysis using the MSD assay noted above, and any residual supernatant was stored at −80° C.
# 7S mitochondria DNA = test: Mitochondria DNA assay with PC3 cells; assay type: cell-based; settings: Homo sapiens, PC-3, 120 h, 5 days, 7S mitochondria DNA level by qPCR relative to 18S or GAPDH
# Method: Exemplary compounds were tested for their effect on levels of 7S mitochondria DNA, and the DNA of housekeeping genes 18S and GAPDH. Reduction of 7S mitochondria DNA indicates off-target inhibition of mitochondrial DNA synthesis, which leads to mitochondrial toxicity. Assay procedures and results are described below.
# PC3 cells were purchased from ATCC and cultured in F-12 Kaighn's modified medium (Hyclone), 10% heat-inactivated fetal bovine serum (Gibco), 1% Penicillin-Streptomycin (Invitrogen). PC3 cells were treated with a dose titration of a test compound on 6 well plates for 5 days at 37° C., 5% CO2 in a humidified incubator.
# Cells were harvested and mitochondria DNA extraction was performed using DNeasy Blood & Tissue Kit (Qiagen) according to the manufacture's instruction.
# Mitochondria 7S and housekeeping genes 18S and GAPDH DNA was quantified by multiplex qPCR with the PowerUp™ SYBR™ Green system (Applied Biosystems). Prepare reaction mix consisting of 5 μl of 2× PowerUp™ SYBR™ Green Master Mix, 1 μl of 5 μM Primers for 7S, 18S, or GAPDH, 4 μl of DNA template from DNA extraction above. The primer sequences are below:
# qPCR was performed on QuantStudio™ 7 Flex RealTime qPCR system (Applied Biosystems) as set forth below: • a. 50° C. for 2 minutes, then • b. 95° C. for 2 minutes, then • c. 95° C. for 15 seconds, then • d. 60° C. for 60 seconds, • where then steps (c) and (d) were repeated 60 times.
# Threshold was calculated by QuantStudio™ 7 Flex Software (ThermoFisher Scientific) using the default settings. Ct values were used to evaluate the relative mitochondria DNA (mtDNA) level using the following formula: ΔCt=Ct (7S target gene)−Ct (18S) or ΔCt=Ct (7S target gene)−Ct (GAPDH). Relative mtDNA level=2^−Δct. Expression fold over DMSO control=2^−Δct (compound treated group)/2^−Δct (DMSO group)
# In the table “A” represents values≤0.1 μM; “B” represents values from >0.1 μM to ≤1.0 μM; “C” represents values from >1.0 μM to ≤10.0 μM; “D” represents values from >10.0 μM to ≤100.0 μM; and “E” represents values>100.0 μM.
SMILES,level of pTBK1 (pTBK1),change in the ISG Score in the spleen and kidney ([1]; compound 100 mg/kg p.o. daily),IFN-β production (human PBMC),IC50 (7S mitochondria DNA) [µM],cell viability (human PBMC; decitabine 10 μM),change in the ISG Score in the spleen and kidney ([1]; compound 30 mg/kg p.o. daily)
"Nc1ccn([C@H]2C[C@H](O)[C@](CO)(CCl)O2)c(=O)n1 [Compound 2, 4-amino-1-((2R,4S,5R)-5-(chloromethyl)-4-hydroxy-5-(hydroxymethyl)tetrahydrofuran-2-yl)pyrimidin-2(1H)-one]",varies in a dose-dependent fashion,show a change in the ISG Score in the spleen and kidney,showed inhibition of IFN-β,≤ 0.1,–,–
"Nc1nc(=O)n([C@H]2C[C@H](O)[C@](CO)(CCl)O2)cc1F [Compound 14, 4-amino-1-((2R,4S,5R)-5-(chloromethyl)-4-hydroxy-5-(hydroxymethyl)tetrahydrofuran-2-yl)-5-fluoropyrimidin-2(1H)-one]",varies in a dose-dependent fashion,–,–,≤ 0.1,–,–
C#C[C@]1(CO)O[C@@H](n2cnc3c(N)nc(Cl)nc32)C[C@@H]1O [Compound 25],–,–,activated production of IFN-β,> 100,–,–
"Nc1ccn([C@@H]2O[C@@](CO)(CCl)[C@@H](O)[C@@H]2F)c(=O)n1 [Compound 40, 4-amino-1-((2R,3S,4R,5R)-5-(chloromethyl)-3-fluoro-4-hydroxy-5-(hydroxymethyl)tetrahydrofuran-2-yl)pyrimidin-2(1H)-one]",varies in a dose-dependent fashion,show a change in the ISG Score in the spleen and kidney,showed inhibition of IFN-β,> 100,some cell viability losses at higher concentrations,–
"CC[C@]1(CO)O[C@@H](n2ccc(N)nc2=O)C[C@@H]1O [Compound 44, 4-amino-1-((2R,4S,5R)-5-ethyl-4-hydroxy-5-(hydroxymethyl)tetrahydrofuran-2-yl)pyrimidin-2(1H)-one]",varies in a dose-dependent fashion,–,–,> 100,–,–
"[N-]=[N+]=N[C@]1(CO)O[C@@H](n2cc(F)c(N)nc2=O)C[C@@H]1O [Compound 61, 4-amino-1-((2R,4S,5R)-5-azido-4-hydroxy-5-(hydroxymethyl)tetrahydrofuran-2-yl)-5-fluoropyrimidin-2(1H)-one]",–,–,–,> 100,–,–
"Nc1nc(=O)n([C@@H]2O[C@@](CO)(CCl)[C@@H](O)[C@@H]2F)cc1F [Compound 67, 4-amino-1-[(2R,3S,4R,5R)-5-(chloromethyl)-3-fluoro-4-hydroxy-5-(hydroxymethyl)oxolan-2-yl]-5-fluoropyrimidin-2-one]",–,show a change in the ISG Score in the spleen and kidney,–,> 100,–,show a change in the ISG Score in the spleen and kidney
"Nc1nc(=O)n([C@H]2C[C@H](O)[C@](CO)(CBr)O2)cc1F [Compound 88, 4-amino-1-((2R,4S,5R)-5-(bromomethyl)-4-hydroxy-5-(hydroxymethyl)tetrahydrofuran-2-yl)-5-fluoropyrimidin-2(1H)-one]",–,–,–,≤ 0.1,–,–
